# Test results reported in patent US8841337B2, “Compounds useful as inhibitors of ATR kinase” (Vertex Pharmaceuticals Incorporated, priority 2011, dated 2014).
# Target: T1, full-length ATR (Homo sapiens, UniProt Q13535)
# T1 construct: Assays were carried out at 25° C. in the presence of 5 nM full-length ATR
# Test: ATR Inhibition Assay (radioactive-phosphate incorporation)
# Format: biochemical
# Settings: Ki(app); 5 nM full-length ATR, 10 μM [γ-33P]ATP, 800 μM target peptide, 25° C.
# Method: Compounds were screened for their ability to inhibit ATR kinase using a radioactive-phosphate incorporation assay. Assays were carried out in a mixture of 50 mM Tris/HCl (pH 7.5), 10 mM MgCl2 and 1 mM DTT. Final substrate concentrations were 10 μM [γ-33P]ATP (3 mCi 33P ATP/mmol ATP, Perkin Elmer) and 800 μM target peptide (ASELPASQPQPFSAKKK).
# Assays were carried out at 25° C. in the presence of 5 nM full-length ATR. An assay stock buffer solution was prepared containing all of the reagents listed above, with the exception of ATP and the test compound of interest. 13.5 μL of the stock solution was placed in a 96 well plate followed by addition of 2 μL of DMSO stock containing serial dilutions of the test compound (typically starting from a final concentration of 15 μM with 3-fold serial dilutions) in duplicate (final DMSO concentration 7%). The plate was pre-incubated for 10 minutes at 25° C. and the reaction initiated by addition of 15 μL [γ-33P]ATP (final concentration 10 μM).
# The reaction was stopped after […] by the addition of 30 μL 0.1M phosphoric acid containing 2 mM ATP. […]
# After removing mean background values for all of the data points, Ki(app) data were calculated from non-linear regression analysis of the initial rate data using the Prism software package (GraphPad Prism version 3.0cx for Macintosh, GraphPad Software, San Diego Calif., USA).
# T1 sequence (Q13535 whole entry): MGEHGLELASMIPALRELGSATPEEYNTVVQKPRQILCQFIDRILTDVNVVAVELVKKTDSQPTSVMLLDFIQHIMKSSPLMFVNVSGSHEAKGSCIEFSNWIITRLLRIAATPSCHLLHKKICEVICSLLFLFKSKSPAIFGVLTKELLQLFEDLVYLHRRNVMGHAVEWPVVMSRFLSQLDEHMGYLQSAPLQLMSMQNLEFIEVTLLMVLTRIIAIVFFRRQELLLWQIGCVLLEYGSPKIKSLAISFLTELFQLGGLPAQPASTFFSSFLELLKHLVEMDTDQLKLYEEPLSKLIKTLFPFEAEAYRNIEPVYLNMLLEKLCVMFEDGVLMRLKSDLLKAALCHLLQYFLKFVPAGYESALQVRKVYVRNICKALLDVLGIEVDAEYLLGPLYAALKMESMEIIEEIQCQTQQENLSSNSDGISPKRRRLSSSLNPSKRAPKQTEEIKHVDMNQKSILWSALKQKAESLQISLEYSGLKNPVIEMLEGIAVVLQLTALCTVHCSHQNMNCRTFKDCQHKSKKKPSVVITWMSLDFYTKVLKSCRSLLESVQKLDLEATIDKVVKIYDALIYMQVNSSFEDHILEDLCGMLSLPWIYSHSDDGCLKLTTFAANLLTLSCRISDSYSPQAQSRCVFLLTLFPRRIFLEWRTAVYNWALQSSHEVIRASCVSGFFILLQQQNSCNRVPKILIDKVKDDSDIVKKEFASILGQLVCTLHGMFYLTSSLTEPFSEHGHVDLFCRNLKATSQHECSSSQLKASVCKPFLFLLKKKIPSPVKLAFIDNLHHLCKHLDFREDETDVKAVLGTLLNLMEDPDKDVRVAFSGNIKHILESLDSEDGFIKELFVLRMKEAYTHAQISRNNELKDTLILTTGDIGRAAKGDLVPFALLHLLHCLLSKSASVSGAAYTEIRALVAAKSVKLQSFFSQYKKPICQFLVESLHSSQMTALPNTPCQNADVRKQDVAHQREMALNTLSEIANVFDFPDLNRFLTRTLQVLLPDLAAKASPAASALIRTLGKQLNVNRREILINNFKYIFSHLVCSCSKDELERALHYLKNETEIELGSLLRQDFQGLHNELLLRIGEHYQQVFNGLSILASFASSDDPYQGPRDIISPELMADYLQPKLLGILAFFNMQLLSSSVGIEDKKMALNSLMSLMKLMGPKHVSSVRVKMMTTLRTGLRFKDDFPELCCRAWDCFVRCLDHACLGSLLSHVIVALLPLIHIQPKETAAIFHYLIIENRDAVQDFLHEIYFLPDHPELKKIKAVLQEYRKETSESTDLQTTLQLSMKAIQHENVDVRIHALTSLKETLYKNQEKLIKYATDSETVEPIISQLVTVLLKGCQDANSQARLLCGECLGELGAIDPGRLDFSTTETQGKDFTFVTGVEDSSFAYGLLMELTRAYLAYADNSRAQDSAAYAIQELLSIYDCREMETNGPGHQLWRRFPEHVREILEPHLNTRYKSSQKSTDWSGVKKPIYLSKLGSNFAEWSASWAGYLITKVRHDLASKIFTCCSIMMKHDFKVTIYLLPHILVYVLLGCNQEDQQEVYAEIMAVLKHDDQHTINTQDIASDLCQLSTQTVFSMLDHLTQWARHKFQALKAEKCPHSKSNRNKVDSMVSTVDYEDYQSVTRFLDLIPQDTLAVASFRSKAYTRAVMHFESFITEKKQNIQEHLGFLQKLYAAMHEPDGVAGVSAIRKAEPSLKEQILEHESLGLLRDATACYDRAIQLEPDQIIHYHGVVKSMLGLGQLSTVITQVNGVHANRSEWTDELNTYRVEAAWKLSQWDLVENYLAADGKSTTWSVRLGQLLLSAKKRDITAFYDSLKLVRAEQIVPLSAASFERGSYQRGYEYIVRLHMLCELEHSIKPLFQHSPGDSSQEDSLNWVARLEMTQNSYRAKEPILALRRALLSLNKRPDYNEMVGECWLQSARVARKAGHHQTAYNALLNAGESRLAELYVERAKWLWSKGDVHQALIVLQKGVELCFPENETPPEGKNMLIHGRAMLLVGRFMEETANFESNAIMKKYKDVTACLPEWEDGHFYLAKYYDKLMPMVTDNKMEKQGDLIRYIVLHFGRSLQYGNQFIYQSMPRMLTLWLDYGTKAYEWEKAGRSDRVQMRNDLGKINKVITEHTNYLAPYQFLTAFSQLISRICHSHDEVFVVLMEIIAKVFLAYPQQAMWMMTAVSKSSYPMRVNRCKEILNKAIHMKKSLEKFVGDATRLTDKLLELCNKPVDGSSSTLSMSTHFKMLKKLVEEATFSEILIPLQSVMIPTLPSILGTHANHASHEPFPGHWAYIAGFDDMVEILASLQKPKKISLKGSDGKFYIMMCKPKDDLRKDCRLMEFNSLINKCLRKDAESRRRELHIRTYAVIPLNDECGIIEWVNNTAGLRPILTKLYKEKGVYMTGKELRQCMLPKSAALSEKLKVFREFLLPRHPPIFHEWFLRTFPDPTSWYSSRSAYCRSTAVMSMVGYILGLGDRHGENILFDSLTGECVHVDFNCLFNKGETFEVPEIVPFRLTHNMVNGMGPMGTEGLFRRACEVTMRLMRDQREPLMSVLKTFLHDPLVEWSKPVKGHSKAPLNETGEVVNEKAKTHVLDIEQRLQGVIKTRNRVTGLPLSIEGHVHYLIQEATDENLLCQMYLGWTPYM
smiles,measurement,value
"CC(C)S(=O)(=O)c1ccc(-c2cnc(N)c(-c3cc(-c4ccccc4)[nH]n3)n2)cc1 [Compound I-1, 5-(4-(isopropylsulfonyl)phenyl)-3-(5-phenyl-1H-pyrazol-3-yl)pyrazin-2-amine]",Ki,2.86 nM
"CC(C)S(=O)(=O)c1ccc(-c2cnc(N)c(-c3ncc(-c4ccccc4)o3)n2)cc1 [Compound I-2, 5-(4-(isopropylsulfonyl)phenyl)-3-(5-phenyloxazol-2-yl)pyrazin-2-amine]",Ki,4.03 nM
